Measurements from patent US20250169495A1, “COMPOSITIONS AND METHODS FOR CONTROLLING DROSOPHILA FLIES” (Rutgers, The State University of New Jersey, priority 2023, published 2025).

How the values were obtained:
[1] = tested on: male and female Drosophila suzukii antennae; experiment: Electroantennogram (EAG) assay; conditions: for strength of EAG response compared among treatments: 0.001-10 mg doses; for antennal (EAG) response: 0.001-10 mg doses in hexane, N=10
Procedure: Electroantennogram (EAG) assays were conducted to determine the antennal response of sexually mature male and female D. suzukii to ethyl butanoate, ethyl (E)-but-2-enoate, and 2-pentylfuran. The antennal responses of male and female D. suzukii to each compound were tested at five doses (0.001 mg, 0.01 mg, 0.1 mg, 1 mg, and 10 mg) diluted in hexane. The stimulus cartridge preparations, antennal preparations, and EAG apparatus used were similar to those previously described in the literature. Stimulus applicators consisted of a 14.5-cm-long glass Pasteur pipette containing 20 μL of each volatile dose (or hexane control) pipetted onto a 6×0.5-cm strip of filter paper. The applicators containing the impregnated filter paper were placed under the fume hood for 2 min to allow the hexane to evaporate. For the recording and base electrodes, a silver wire was inserted into a drawn capillary tube filled with phosphate-buffered saline (NaCl, 4 g; NA2HPO4, 0.57 g; KH2PO4, 0.1 g; KCl, 0.1 g in 500 ml distilled water). To attach the base electrode to the fly, the fly's abdomen was removed, and the sharp tip of the saline-filled capillary tube was pulled directly into the thoracic cavity. Once the fly preparation was mounted, the recording electrode was carefully moved toward the antenna using a micromanipulator until the antenna touched the pool of saline solution on the recording electrode. Antennal preparations were exposed to a constant stream of charcoal-filtered and humidified air at a rate of 1.5 l/min.
The EAG apparatus consisted of an IDAC-02 interface board for data acquisition and used Syntech software (Syntech Ltd., Hilversum, The Netherlands) for recording, storing, and quantifying EAG responses. Antennal preparations were primed with 1 mg of acetoin, a known attractant and antennally active compound, to ensure that the antennae were prepared correctly and responsive (positive control). Then, the antennae were exposed to a hexane control, followed by exposure to increasing doses of one of the volatiles. Each antenna was exposed to four rounds of each dose of a single compound before being discarded. Six antennae were tested daily: three from males and three from females. Test and control compounds were applied at 10 second(s) intervals at a pulse rate of 0.5 s, with a 1-min interval between each stimulus. Maximum amplitudes of depolarizations were measured (in millivolts) for each compound with the response from the hexane-only controls subtracted from the other doses to normalize the antennal response. In total, each dose of each compound was replicated 10 times for each sex.
To analyze the effect of dose of the three repellents on D. suzukii antennal responses, a generalized linear model (GLM) was used with a Poisson distribution and a log link function in SPSS Statistics 23.0 (IBM Corp, Armonk, NY, USA). The model included ‘Treatment’ (ethyl butanoate, ethyl (E)-but-2-enoate, and 2-pentylfuran), ‘Dose’, ‘Sex’, and their interactions as independent variables. This analysis, when significant, was followed by post hoc Bonferroni tests (α=0.05) to determine individual differences among groups. Prior to analysis, EAG data were normalized relative to the response to the hexane control.

[2] = Emission rate from polyethylene sachets, field cages; format: physicochemical; conditions: field cage; sachets weighed before and 3 days after deployment
From the text: Twenty-four hours after deploying the sachets, 120 flies (approximately 60 males and 60 females) were released into each cage at 18:00 hrs (N=120 flies×4 treatments×4 replicates=1,920 total flies). To ensure even distribution within the cages, 30 flies were released at four equidistant points between the bushes. A pre-sampling of the berries, conducted before the flies were released, confirmed the absence of any infestation. Berries were then collected 1-, 2-, and 3-days post-treatment. From every other bush (starting at the focal bush) in the cage, 50 berries from the top half and 50 from the bottom half were collected into two separate 236.6 mL deli containers lined with two cotton pads. From each berry sample, a random subsample of 10 berries were examined and egg counts recorded before being returned to the original container. The blueberries were incubated on a light bench in the laboratory for up to two weeks, as previously described, and adult emergence was recorded. The sachets were weighed before deployment and 3 days after deployment to measure the emission rates of each compound. Finally, the emission rates of compounds in the semi-field and field cage studies were calculated by subtracting the final weight of the sachets from the initial weight and dividing by the time interval (24 h or 3 days). These rates were then compared across repellent treatments using ANOVA, with Tukey pairwise comparisons conducted when significant differences were found.

[3] = Emission rate from polyethylene sachets, semi-field cages; format: physicochemical; conditions: sachet with 2.5 mL, 24 h
Procedure: On the day of testing, two bushes were placed in each cage (FIG. 6B). Each bush in the tent was surrounded by a metal tomato cage. The bagged blueberry fruit clusters in the field were clipped and brought inside the cages. Clusters of 10 berries were created and placed in water picks. Five berry clusters were distributed randomly and evenly on each tomato cage at different heights using green twist ties (FIG. 6B). The sachets used for the treatments were prepared according to the methods described by Gale et al. (2024). They were constructed from 8 cm strips of polyethylene tubing (5.1 cm width, 2 MIL thickness; ULINE, Pleasant Prairie, WI, USA) and polyester felt (Grainger, Lake Forest, IL, USA). One end of the polyethylene tubing was sealed with an impulse sealer. A 5 cm strip of felt was placed inside the sachet's open end, and a 2.5 mL aliquot of each treatment was pipetted onto the felt. The open end was then sealed shut with the impulse sealer, entirely sealing the saturated felt. A hole was punched at the top of each sachet, away from the treatment area to avoid damaging the sealed section, and green twist ties were used to hang the sachets in the center of a bush (FIG. 6B). Before loading the sachets, the weights of the empty sachets were taken. The sachets were weighed again directly after loading with the compounds and then a final time after the 24-hour test period to measure the emission rates of each volatile. Finally, the emission rates of compounds in the semi-field and field cage studies were calculated by subtracting the final weight of the sachets from the initial weight and dividing by the time interval (24 h or 3 days). These rates were then compared across repellent treatments using ANOVA, with Tukey pairwise comparisons conducted when significant differences were found.

SMILES	strength of EAG response compared among treatments [1]	antennal (EAG) response [1]	emission rate (mean±SE) [2] [mg/day]	mean emission rate (±SE) [3] [mg/h]
CCCC(=O)OCC [ethyl butanoate]	stronger antennal responses than 2-pentylfuran	dose-dependent antennal responses	697.97 ± 7.96	70.4 ± 14.2
C/C=C/C(=O)OCC [ethyl (E)-but-2-enoate]	stronger antennal responses than 2-pentylfuran	dose-dependent antennal responses	679.23 ± 17.73	54.9 ± 8.9
CCCCCc1ccco1 [2-pentylfuran, reference compound]	–	dose-dependent antennal responses	559.73 ± 23.54	82.3 ± 7.6
